{"source": "patent US8846873B2", "about": "“Antibodies directed to GPNMB and uses thereof” (Celldex Therapeutics, Inc., priority 2004, dated 2014)", "key": {"[1]": {"system": "SK-MEL-5 melanoma xenografts", "assay": "Human SK-MEL-5 melanoma xenograft in athymic mice", "type": "in vivo", "experimental": "Test Animals: Five- to 6-week old athymic mice (CD-1 nu/nu females), used for human tumor xenografts, were obtained from Harlan Laboratories (Indianapolis, Ind.). Animals were housed in specific pathogen-free conditions, according to the guidelines of the Association for Assessment and Accreditation of Laboratory Animal Care International (AAALAC International). Test animals were provided pelleted food and water ad libitum and kept in a room with conditioned ventilation (HVAC), temperature (22°±2° C.), relative humidity (55%±15%), and photoperiod (12 hr). All studies were carried out with approved institutional animal care and use protocols.\nHuman Melanoma Xenograft Models. The tumor inhibitory activity of the CR011-MMAE immunoconjugate was measured in an anti-tumor xenograft model using athymic mice, according to published methods (see Geran et al., Cancer Chemother. Rep. 3:1-104 (1972)). […] When tumors became established (10-20 days), the animals were pair-matched into groups (n=6 mice/group), and treatment was administered by intravenous injection (tail vein).\nThe SK-MEL-2 human melanoma (ATCC #HTB-68) was derived from a metastatic site (skin of thigh) of a person with malignant melanoma, and the SK-MEL-5 human melanoma (ATCC #HTB-70) was derived from a metastatic site (axillary lymph node) of a person with malignant melanoma (see Fogh et al., J. Natl. Cancer Inst. 59: 221-226 (1977)). Both cell lines were obtained from the American Type Culture Collection.\nThe effects of treatment were monitored by repetitive tumor measurements across 2 diameters with Vernier calipers; tumor size (in mg) was calculated using a standard formula, (W^2×L)/2, assuming a specific gravity of 1.0. Tumor size and body weights were assessed twice weekly. Mice were examined daily, however, and moribund animals were humanely euthanized if clinical indications of excessive pain or distress were noted (i.e., prostration, hunched posture, paralysis/paresis, distended abdomen, ulcerations, abscesses, seizures, and/or hemorrhages). Animals with tumors exceeding 2,000 mg were removed from the study and euthanized humanely.\nSoon after the commencement of treatment with paclitaxel, however, significant tumor growth inhibition was observed (P≦0.039) at day 3 after treatment began, and this anti-tumor effect continued, producing 100% growth inhibition (stasis). The responses of SK-MEL-5-bearing test animals to vinblastine and paclitaxel were short-lived. After cessation of treatment at the maximally tolerated doses, tumors resumed rapid, progressive growth."}, "[2]": {"assay": "Pharmacokinetics of CR011-vcMMAE after intravenous administration (sandwich ELISA of serum)", "type": "in vivo, athymic mice", "settings": "for A (pre-exponential constant for alpha phase) / AUC (total area under the curve from 0 to infinity) / Alpha (exponential rate constant for alpha phase) / Alpha-Half Life / B (pre-exponential constant for beta phase) / Beta (exponential rate constant for beta phase) / Beta- Half Life / Cl (total or systemic clearance) / Cmax / Volume (volume of central compartment) / Vss (steady-state volume of distribution): athymic mice, serum", "description": "Abbreviations: A: Pre-exponential constant for alpha phase; Alpha: Exponential rate constant for alpha phase; AUC Total area under the curve from 0 to infinity; B: Pre-exponential constant for beta phase; Beta: Exponential rate constant for beta phase; Cl: Total or systemic clearance; Cmax: Maximum observed concentration; MRT: Mean residence time; Volume: Volume of central compartment; Vss: Steady-state volume of distribution."}, "[3]": {"system": "SK-Mel-2 cells", "assay": "Cell cycle analysis (BrdU / propidium iodide flow cytometry)", "type": "cell-based, human", "settings": "for % G1 / % G2/M / % S-phase / % Sub-G1: SK-Mel-2, 24 hour", "experimental": "(§1) Briefly, cells were pulsed at the indicated times with 30 μM of bromodeoxyuridine (BrdU, Sigma) for 30 min, harvested, fixed and permeabilized in methanol. Nascent DNA synthesis was detected by anti-bromodeoxyuridine-FITC (BD Biosciences, San Jose, Calif.) staining. Total DNA content was detected using propidium iodide (PI, Sigma). For apoptosis analysis, cells were treated as above and labeled with Annexin V-FITC followed by propidium iodide exclusion using the Annexin V-FITC Apoptosis Detection kit I (BD PharMingen, San Diego, Calif.) according to the manufacturer's protocols. Flow cytometry (as described in the previous Example) was used to assay both cell cycle and apoptosis studies.\n(§2) DNA synthesis and cell cycle progression were determined by flow cytometry (Table 52)."}, "[4]": {"system": "TK-10 cells", "assay": "Cell cycle analysis (BrdU / propidium iodide flow cytometry)", "type": "cell-based, human", "settings": "for % G1 / % G2/M / % S-phase / % Sub-G1: TK-10, 24 hour", "experimental": "as §1, §2"}, "[5]": {"system": "SF-539", "assay": "Clonogenic assay, CR011-vcMMAE in vitro growth inhibition", "type": "cell-based, human", "experimental": "(§3) Cells were plated in 96-well plates and allowed to recover overnight. […] The cells were then transferred into 6-well plates and allowed to form colonies. Colonies were stained with Giemsa stain (Sigma) and counted. The surviving cell fractions were calculated based upon the ratio of the treated sample and the untreated control. The results were expressed as a percentage of control using GraphPad Prism Version 4 software."}, "[6]": {"system": "SNB-78", "assay": "Clonogenic assay, CR011-vcMMAE in vitro growth inhibition", "type": "cell-based, human", "experimental": "as §3"}, "[7]": {"system": "U-118-MG", "assay": "Clonogenic assay, CR011-vcMMAE in vitro growth inhibition", "type": "cell-based, human", "experimental": "as §3"}, "[8]": {"system": "XF-498", "assay": "Clonogenic assay, CR011-vcMMAE in vitro growth inhibition", "type": "cell-based, human", "experimental": "as §3"}}, "data": [{"substance": "CR011-vcMMAE: anti-GPNMB antibody 1.15.1 coupled to monomethylauristatin E via protease-sensitive valine-citrulline linker", "values": [{"measurement": "complete regressions", "setting": "[1]; 2.5 mg/kg/treatment", "value": "Complete regressions occurred"}, {"measurement": "time after treatment began to significant anti-tumor effects", "setting": "[1]; 10 mg/kg/treatment, compared to PBS-treated controls", "value": 10, "unit": "days"}, {"measurement": "time after treatments began to significant anti-tumor effects", "setting": "[1]; 10 mg/kg/treatment, compared to saline", "value": 7, "unit": "days"}, {"measurement": "anti-tumor effect", "setting": "[1]; CR011-ONC-3, i.v., vs saline and PBS control groups", "value": "Substantial tumor growth inhibition, as well as tumor growth delay and complete regressions"}, {"measurement": "doses at which complete regressions occurred", "setting": "[1]; i.v., q4d x4", "value": "> 2.5", "unit": "mg/kg"}, {"measurement": "toxicity (mortality, body weight or weight gain)", "setting": "[1]; treated tumor-bearing animals", "value": "no indication of toxicity"}, {"measurement": "A (pre-exponential constant for alpha phase)", "setting": "[2]; 1 mg/kg intravenous", "value": 8.97, "unit": "µg/mL"}, {"measurement": "AUC (total area under the curve from 0 to infinity)", "setting": "[2]; 1 mg/kg intravenous", "value": 3712, "unit": "µg·h/mL"}, {"measurement": "Alpha (exponential rate constant for alpha phase)", "setting": "[2]; 1 mg/kg intravenous", "value": 0.179, "unit": "h⁻¹"}, {"measurement": "Alpha-Half Life", "setting": "[2]; 1 mg/kg intravenous", "value": 0.162, "unit": "days"}, {"measurement": "B (pre-exponential constant for beta phase)", "setting": "[2]; 1 mg/kg intravenous", "value": 9.82, "unit": "µg/mL"}, {"measurement": "Beta (exponential rate constant for beta phase)", "setting": "[2]; 1 mg/kg intravenous", "value": 0.00269, "unit": "h⁻¹"}, {"measurement": "Beta- Half Life", "setting": "[2]; 1 mg/kg intravenous", "value": 10.8, "unit": "days"}, {"measurement": "Cl (total or systemic clearance)", "setting": "[2]; 1 mg/kg intravenous", "value": 6.46, "unit": "mL/day/kg"}, {"measurement": "Cmax", "setting": "[2]; 1 mg/kg intravenous", "value": 18.8, "unit": "µg/mL"}, {"measurement": "Volume (volume of central compartment)", "setting": "[2]; 1 mg/kg intravenous", "value": 0.0532, "unit": "L/kg"}, {"measurement": "Vss (steady-state volume of distribution)", "setting": "[2]; 1 mg/kg intravenous", "value": 0.099, "unit": "L/kg"}, {"measurement": "A (pre-exponential constant for alpha phase)", "setting": "[2]; 10 mg/kg intravenous", "value": 74.6, "unit": "µg/mL"}, {"measurement": "AUC (total area under the curve from 0 to infinity)", "setting": "[2]; 10 mg/kg intravenous", "value": 41210, "unit": "µg·h/mL"}, {"measurement": "Alpha (exponential rate constant for alpha phase)", "setting": "[2]; 10 mg/kg intravenous", "value": 0.0812, "unit": "h⁻¹"}, {"measurement": "Alpha-Half Life", "setting": "[2]; 10 mg/kg intravenous", "value": 0.3555, "unit": "days"}, {"measurement": "B (pre-exponential constant for beta phase)", "setting": "[2]; 10 mg/kg intravenous", "value": 113, "unit": "µg/mL"}, {"measurement": "Beta (exponential rate constant for beta phase)", "setting": "[2]; 10 mg/kg intravenous", "value": 0.00281, "unit": "h⁻¹"}, {"measurement": "Beta- Half Life", "setting": "[2]; 10 mg/kg intravenous", "value": 10.3, "unit": "days"}, {"measurement": "Cl (total or systemic clearance)", "setting": "[2]; 10 mg/kg intravenous", "value": 5.83, "unit": "mL/day/kg"}, {"measurement": "Cmax", "setting": "[2]; 10 mg/kg intravenous", "value": 188, "unit": "µg/mL"}, {"measurement": "Volume (volume of central compartment)", "setting": "[2]; 10 mg/kg intravenous", "value": 0.0532, "unit": "L/kg"}, {"measurement": "Vss (steady-state volume of distribution)", "setting": "[2]; 10 mg/kg intravenous", "value": 0.0845, "unit": "L/kg"}, {"measurement": "T1/2β", "setting": "[2]; 1 or 10 mg/kg intravenously", "value": 10.3, "unit": "days"}, {"measurement": "contribution of the initial phase (α) to the total AUC", "setting": "[2]; 1 or 10 mg/kg intravenously", "value": "< 2", "unit": "%"}, {"measurement": "volume of distribution at steady state (Vss)", "setting": "[2]; intravenous", "value": "very low"}, {"measurement": "decreased percentage of cells in G1 and S-phase compared to untreated cells", "setting": "[3]; 1000 ng/mL, 24 hrs", "value": 10, "unit": "%"}, {"measurement": "increased percentage of cells in G2/M compared to untreated cells", "setting": "[3]; 1000 ng/mL, 24 hrs", "value": 18.6, "unit": "%"}, {"measurement": "increased percentage of cells in G2/M", "setting": "[3]; 1000 ng/mL, 48 hr", "value": 24, "unit": "%"}, {"measurement": "reduced percentage of cells in G1 and S-phase", "setting": "[3]; 1000 ng/mL, 48 hr", "value": 11, "unit": "%"}, {"measurement": "% G1", "setting": "[3]; 100 ng/mL", "value": 56.0, "unit": "%"}, {"measurement": "% G2/M", "setting": "[3]; 100 ng/mL", "value": 12.4, "unit": "%"}, {"measurement": "% S-phase", "setting": "[3]; 100 ng/mL", "value": 26.9, "unit": "%"}, {"measurement": "% Sub-G1", "setting": "[3]; 100 ng/mL", "value": 0.2, "unit": "%"}, {"measurement": "% G1", "setting": "[3]; 1000 ng/mL", "value": 43.7, "unit": "%"}, {"measurement": "% G2/M", "setting": "[3]; 1000 ng/mL", "value": 28.5, "unit": "%"}, {"measurement": "% S-phase", "setting": "[3]; 1000 ng/mL", "value": 20.0, "unit": "%"}, {"measurement": "% Sub-G1", "setting": "[3]; 1000 ng/mL", "value": 1.1, "unit": "%"}, {"measurement": "cycling of GPNMB-negative cells", "setting": "[4]; 1000 ng/mL", "value": "did not affect the cycling"}, {"measurement": "% G1", "setting": "[4]; 100 ng/mL", "value": 51.1, "unit": "%"}, {"measurement": "% G2/M", "setting": "[4]; 100 ng/mL", "value": 4.5, "unit": "%"}, {"measurement": "% S-phase", "setting": "[4]; 100 ng/mL", "value": 35.1, "unit": "%"}, {"measurement": "% Sub-G1", "setting": "[4]; 100 ng/mL", "value": 0.7, "unit": "%"}, {"measurement": "% G1", "setting": "[4]; 1000 ng/mL", "value": 52.6, "unit": "%"}, {"measurement": "% G2/M", "setting": "[4]; 1000 ng/mL", "value": 3.9, "unit": "%"}, {"measurement": "% S-phase", "setting": "[4]; 1000 ng/mL", "value": 34.2, "unit": "%"}, {"measurement": "% Sub-G1", "setting": "[4]; 1000 ng/mL", "value": 0.8, "unit": "%"}, {"measurement": "IC50", "setting": "[5]", "value": "~1.05", "unit": "µg/mL"}, {"measurement": "IC50", "setting": "[6]", "value": "~0.45", "unit": "µg/mL"}, {"measurement": "IC50", "setting": "[7]", "value": "~1.25", "unit": "µg/mL"}, {"measurement": "IC50", "setting": "[8]", "value": "approximately 215 ng/mL"}]}]}
